#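 A five-concentration, 48-hour dose response in 96-well plates underlies each endpoint, interpolated linearly between surrounding concentrations. The concentration for 50% growth inhibition is given as GI50. TGI denotes the concentration required for complete inhibition of growth.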
# What was measured:
# Test in all cases: growth of human tumour cells (NCI), 48 h
# NCI-H23 lung = tested on: NCI-H23 lung
# COLO 205 colon = tested on: COLO 205 colon
# HCT-15 colon = tested on: HCT-15 colon
# HT29 colon = tested on: HT29 colon
# TK-10 renal = tested on: TK-10 renal
# SN12C renal = tested on: SN12C renal
# UACC-257 melanoma = tested on: UACC-257 melanoma
# U251 CNS = tested on: U251 CNS
# K-562 leukemia = tested on: K-562 leukemia
# MCF7 breast = tested on: MCF7 breast
SMILES,TGI (NCI-H23 lung) [µM],TGI (COLO 205 colon) [µM],TGI (HCT-15 colon) [µM],TGI (HT29 colon) [µM],TGI (TK-10 renal) [µM],TGI (SN12C renal) [µM],TGI (UACC-257 melanoma) [µM],TGI (U251 CNS) [µM],TGI (K-562 leukemia) [µM],GI50 (NCI-H23 lung) [µM],GI50 (MCF7 breast) [µM],TGI (MCF7 breast) [µM],GI50 (HCT-15 colon) [µM],GI50 (TK-10 renal) [µM],GI50 (SN12C renal) [µM],GI50 (UACC-257 melanoma) [µM],GI50 (U251 CNS) [µM],GI50 (COLO 205 colon) [µM],GI50 (HT29 colon) [µM],GI50 (K-562 leukemia) [µM]
COc1ccc(/C=C2\CCC(C)(CN(C)C)C2=O)cc1OC (stereo not drawn),> 100,> 100,> 100,> 100,> 100,> 100,> 100,> 100,> 100,–,–,–,–,–,–,–,–,–,–,–
O=C(CC1SC(=Nc2ccccc2Cl)NC1=O)Nc1ccc(Cl)cc1Cl (stereo not drawn),> 100,> 100,–,> 100,> 100,> 100,> 100,> 100,–,–,–,–,–,–,–,–,–,–,–,–
Cc1ccc(NC(=O)CC2C(=O)Nc3ccccc3S2(=O)=O)c(C)c1 (stereo not drawn),37.2,–,30.3,27.2,55,39.3,55,25.8,29,–,–,–,–,–,–,–,–,–,–,–
O=c1[nH]cc(F)c(=O)n1C1OC(CO)C(O)C1O (stereo not drawn),> 100,> 100,> 100,> 100,> 100,> 100,> 100,> 100,> 100,–,–,–,–,–,–,–,–,–,–,–
O=C(O)/C=C/c1nc2ccccc2c(=O)o1,> 100,> 100,> 100,> 100,> 100,> 100,–,> 100,> 100,–,–,–,–,–,–,–,–,–,–,–
NC(=O)NNC(=O)NC12CC3CC(CC(C3)C1)C2,> 100,> 100,> 100,> 100,> 100,> 100,> 100,> 100,> 100,–,–,–,–,–,–,–,–,–,–,–
NC(=O)c1csc(C2OC(COP(=O)(O)CP(=O)(O)OCC3OC(n4cnc5c(N)ncnc54)C(O)C3O)C(O)C2O)n1 (stereo not drawn),> 100,> 100,> 100,> 100,> 100,> 100,> 100,> 100,> 100,–,–,–,–,–,–,–,–,–,–,–
O=S(=O)(c1cccc(N=C=S)c1)c1cccc(N=C=S)c1,32.9,38.1,33.8,–,40,37.7,38.5,35.4,> 100,–,–,–,–,–,–,–,–,–,–,–
Cc1cc(C)nc(NS(=O)(=O)c2ccc(Nc3c4ccccc4nc4c(C(=O)Nc5ccc(S(=O)(=O)N=C(N)N)cc5)cccc34)cc2)n1,> 100,> 100,> 100,> 100,> 100,> 100,> 100,> 100,> 100,–,–,–,–,–,–,–,–,–,–,–
O=C1Nc2ccccc2N=CC1NC(=O)C(c1ccccc1)c1ccccc1 (stereo not drawn),> 100,> 100,> 100,> 100,> 100,> 100,> 100,> 100,> 100,–,–,–,–,–,–,–,–,–,–,–
CC12CCC(=O)N1c1ccc([N+](=O)[O-])cc1N2 (stereo not drawn),> 100,> 100,> 100,> 100,–,> 100,> 100,> 100,> 100,–,–,–,–,–,–,–,–,–,–,–
COc1ccc(CCC2c3cc(OC)c(OC)cc3CCN2C)cc1OC (stereo not drawn),> 100,> 100,> 100,> 100,> 100,> 100,> 100,> 100,> 100,–,–,–,–,–,–,–,–,–,–,–
O=S(=O)(/C=C/C(=C/c1ccccc1)S(=O)(=O)c1ccccc1)c1ccccc1,3.56,4.31,3.3,3.28,3.24,3.43,2.89,3.27,9.19,–,–,–,–,–,–,–,–,–,–,–
COc1ccc(NC(=O)C2CCC(CNS(=O)(=O)c3ccccc3)CC2)cc1OC (stereo not drawn),> 100,–,> 100,–,> 100,69.5,> 100,> 100,–,> 100,> 100,> 100,> 100,> 100,2.69,> 100,54,–,–,–
C[CH2][Sn]([CH2]C)([O]C(=O)c1ccccc1OC)[O][Sn]([CH2]C)([CH2]C)[O]C(=O)c1ccccc1OC,> 100,> 100,> 100,> 100,> 100,> 100,> 100,> 100,> 100,> 100,–,–,> 100,> 100,> 100,> 100,> 100,> 100,> 100,47
CCCCCO/N=C\c1c2c(O)c3c(O)c(C)c4c(c3c1O)C(=O)C(C)(O/C=C\C(OC)C(C)C(OC(C)=O)C(C)C(O)C(C)C(O)C(C)/C=C\C=C(\C)C(=O)N2)O4 (stereo not drawn),3.44,2.85,3.31,–,–,3.35,6.19,3.54,> 100,1.74,1.71,3.54,1.79,–,1.63,2.3,1.84,1.52,–,3.57

SMILES,TGI (NCI-H23 lung) [µM],TGI (COLO 205 colon) [µM],TGI (HCT-15 colon) [µM],TGI (HT29 colon) [µM],TGI (TK-10 renal) [µM],TGI (SN12C renal) [µM],TGI (UACC-257 melanoma) [µM],TGI (U251 CNS) [µM],TGI (K-562 leukemia) [µM],GI50 (NCI-H23 lung) [µM],GI50 (MCF7 breast) [µM],TGI (MCF7 breast) [µM],GI50 (HCT-15 colon) [µM],GI50 (TK-10 renal) [µM],GI50 (SN12C renal) [µM],GI50 (UACC-257 melanoma) [µM],GI50 (U251 CNS) [µM],GI50 (COLO 205 colon) [µM],GI50 (HT29 colon) [µM],GI50 (K-562 leukemia) [µM]
Cc1ccc(S(=O)(=O)N/N=C(/CC(=O)c2c(C)n([O-])c3ccccc3[n+]2=O)C(=O)Nc2ccccc2C)cc1,> 100,> 100,> 100,> 100,–,> 100,> 100,> 100,–,–,–,–,–,–,–,–,–,–,–,–
C(=N/N(Cc1ccccc1)Cc1ccccc1)/c1ccccc1,> 100,> 100,> 100,> 100,> 100,> 100,> 100,> 100,–,90.8,42.9,> 100,> 100,> 100,> 100,96.9,> 100,> 100,24.7,–
COCOCC/C=C/C=O,> 100,> 100,> 100,> 100,> 100,> 100,> 100,> 100,> 100,–,–,–,–,–,–,–,–,–,–,–
CC(=O)OCCOCNC(=S)N/N=C/c1cc(Br)cs1,> 100,> 100,> 100,> 100,> 100,> 100,> 100,> 100,> 100,–,–,–,–,–,–,–,–,–,–,–
O=C(c1nc2ccccc2[nH]c1=O)C(O)c1ccccc1 (stereo not drawn),> 100,> 100,> 100,> 100,> 100,> 100,> 100,> 100,> 100,–,–,–,–,–,–,–,–,–,–,–
Cc1ccc(C)c(N2C(=O)C(=O)C(c3nc4ccccc4s3)/C(=N/NC(=O)NN)C2=O)c1 (stereo not drawn),> 100,> 100,> 100,> 100,> 100,> 100,> 100,> 100,–,–,–,–,–,–,–,–,–,–,–,–
C=C1CCC2[C@@H](CCC3[C@]2(C)CCC[C@]3(C)C(=O)OC)C1CC=O (stereo partly drawn),35.4,35.5,43.6,30.8,26.6,36.7,31,33.5,26.6,–,–,–,–,13.2,–,–,17.8,–,–,8.65
C[N+](C)(C)CC1CCCC1=O (stereo not drawn),9.67,2.99,7.44,3.34,6.76,5.56,13.3,29.3,> 100,–,–,–,–,–,–,–,–,–,–,–
COc1ccc(-c2cc(C(=O)Nc3ccc(C)c(C)c3)nc(NC#N)n2)cc1,> 100,> 100,> 100,> 100,> 100,> 100,> 100,> 100,> 100,–,–,–,–,–,–,–,–,–,–,–
CC1(c2ccccc2Cl)C(C#N)C(=O)NC(=O)C1C#N (stereo not drawn),> 100,> 100,> 100,> 100,> 100,> 100,> 100,–,> 100,–,–,–,–,–,–,–,–,–,–,–
COc1cc2c(cc1OC)-c1ncc3c(OC)c(OC)c(OC)cc3c1C2,–,> 100,44.5,–,50.4,–,–,33,> 100,–,4.14,18.7,13.7,18.9,–,–,15.8,> 100,–,10.7
C#CCNC(=O)[C@H](CC)[C@H]1CC[C@H](C)[C@H]([C@@H](C)[C@H](O)[C@H](C)C(=O)[C@H](CC)C2O[C@]3(C=CC(=O)[C@]4(CC[C@@](C)([C@H]5CC[C@](O)(CC)[C@H](C)O5)O4)O3)[C@H](C)C[C@@H]2C)O1 (stereo partly drawn),> 100,3.52,7.81,5.46,7.74,6.58,4.88,3.93,–,2.83,2.67,12.2,2.61,2.35,2.29,1.94,1.88,1.84,2.26,–
COCCNC(=O)C1C(=O)C(=O)N(CCOC)C1=O (stereo not drawn),> 100,> 100,> 100,> 100,> 100,> 100,> 100,> 100,> 100,–,–,–,–,–,–,–,–,–,–,–
Cc1nc(C(=O)O)c2ccccc2n1,> 100,> 100,–,> 100,> 100,> 100,> 100,> 100,> 100,–,–,–,–,–,–,–,–,–,–,–
CCCCC1(C)C=C/C(=C2/C(=O)O/C(=C\C(=O)O)C2=O)O1 (stereo not drawn),> 100,> 100,> 100,> 100,> 100,> 100,> 100,> 100,> 100,–,–,–,–,–,–,–,–,–,–,–
